In PubChem BioAssay AID1645863 (Buhrlage Lab, Dana-Farber Cancer Institute and Novartis …, 2021):
Active and inactive are the calls of the source. How the calls were made is not given here.

What follows are compounds tested against Ubiquitin carboxyl-terminal hydrolase 10 (Homo sapiens) (UniProt Q14694) (assay: ubiquitin-specific protease 10 DUB inhibitors, concentration-effect, biochemical, verification of primary screen actives (AID 1645863;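 further: potency values describe inhibition of USP10 cleavage of a fluorogenic ubiquitin substrate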)). Conditions: USP10 deubiquitinase enzymatic assay.
Ubiquitin carboxyl-terminal hydrolase 10 (Homo sapiens), sequence (Q14694 whole entry, looked up): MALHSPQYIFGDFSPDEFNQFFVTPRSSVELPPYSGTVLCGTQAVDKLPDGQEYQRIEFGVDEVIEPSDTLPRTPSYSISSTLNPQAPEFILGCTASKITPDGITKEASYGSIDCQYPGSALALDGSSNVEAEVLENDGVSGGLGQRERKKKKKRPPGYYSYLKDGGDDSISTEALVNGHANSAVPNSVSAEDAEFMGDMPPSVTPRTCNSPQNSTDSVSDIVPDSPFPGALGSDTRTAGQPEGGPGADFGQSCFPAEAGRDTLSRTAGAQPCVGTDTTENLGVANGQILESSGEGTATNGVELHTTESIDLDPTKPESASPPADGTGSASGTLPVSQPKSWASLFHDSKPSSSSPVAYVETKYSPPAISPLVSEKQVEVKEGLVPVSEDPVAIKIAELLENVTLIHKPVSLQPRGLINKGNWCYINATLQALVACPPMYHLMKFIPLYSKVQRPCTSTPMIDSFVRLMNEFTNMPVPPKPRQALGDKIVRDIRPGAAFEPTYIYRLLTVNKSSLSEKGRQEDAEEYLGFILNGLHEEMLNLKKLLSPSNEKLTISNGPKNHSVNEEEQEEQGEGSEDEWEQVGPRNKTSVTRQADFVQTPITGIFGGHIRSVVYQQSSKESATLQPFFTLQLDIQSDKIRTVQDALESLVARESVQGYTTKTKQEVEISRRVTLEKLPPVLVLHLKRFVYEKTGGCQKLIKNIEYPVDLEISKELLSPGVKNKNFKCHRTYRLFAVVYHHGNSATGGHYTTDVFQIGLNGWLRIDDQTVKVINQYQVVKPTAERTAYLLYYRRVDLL

Structure (SMILES)	IC50
O=C(Nc1ccccc1C(=O)O)c1ccc(CSCc2ccccc2)cc1	10.4 µM
O=C(CC1C(=O)Nc2nc(-c3ccccc3)nn21)Nc1cccc2ccccc12 (centres undefined)	13.3 µM
Cc1ccc(C2SCC(=O)Nc3c2c(=O)[nH]n3C2CCCCC2)cc1 (centres undefined)	28.8 µM
O=C(Nc1ccc(-c2cn3ccsc3n2)cc1)c1ccc(Cl)c([N+](=O)[O-])c1	19.7 µM
CCCCOc1ccc(C(=O)n2ccn(S(=O)(=O)c3ccc(C)cc3)c2=O)cc1	> 40 µM (inactive)
O=C(Cn1c(=O)n(Cc2ccc3c(c2)OCO3)c(=O)c2ccccc21)NCc1ccco1	30.5 µM
CCOc1ccc(NC(=O)Cn2c(=O)n(CCC(=O)NCc3ccco3)c(=O)c3ccccc32)cc1	24.4 µM
N#Cc1ccc(NC(=O)Nc2cccn(Cc3ccccc3Br)c2=O)cc1	> 40 µM (inactive)
CCc1nnc(C(=O)Nc2ccc(C(=O)NCc3ccc(OC(C)C)cc3)cc2)s1	> 40 µM (inactive)
Cc1ccc(C(=O)c2cn(CC(=O)Nc3ccc4c(c3)OCO4)c3ccccc3c2=O)cc1	16.4 µM
O=C(/C=C/c1ccco1)c1cccc([N+](=O)[O-])c1	35.1 µM
Cc1c(-c2nn3c(-c4ccco4)nnc3s2)cccc1[N+](=O)[O-]	> 40 µM (inactive)
O=C(Cn1c(COc2ccccc2)nc2ccccc21)Nc1cc(Cl)ccc1Cl	> 40 µM (inactive)
CC(C)=CCOC(C)(C)[C@H]1OC2CC[C@@]3(C)C(CCC4Cc5c([nH]c6ccccc56)[C@@]43C)C23OC3[C@@H]1O (some centres undefined)	10.6 µM
CC(C)(C)c1ccc(C2CC(=O)C3=C(C2)Nc2ccccc2N(C(=O)CCC(=O)O)C3c2cccc([N+](=O)[O-])c2)cc1 (centres undefined)	> 40 µM (inactive)
O=C(Nc1cccc(-c2nc3ncccc3o2)c1)c1ccc([N+](=O)[O-])cc1	> 40 µM (inactive)
Cc1ccc(Nc2nc(NCC(=O)Nc3cc(C)ccc3C)nc(Nc3ccc(C)cc3)n2)cc1	32.8 µM
O=C(Nc1ccccc1Cc1ccccc1)c1nc2n(n1)-c1ccccc1S(=O)(=O)N2	25.3 µM
Brc1ccc(Nc2nc(-c3ccccn3)nc3ccccc23)cc1	21 µM

Structure (SMILES)	IC50
Cc1cccc(OCC2=NN3C(=N)/C(=C\c4cc(C)n(-c5cccc(F)c5)c4C)C(=O)N=C3S2)c1	> 40 µM (inactive)
O=C(Cc1ccc(-n2c(=O)c3ccccc3n(CC(=O)Nc3ccc(Cl)cc3Cl)c2=O)cc1)NCc1ccco1	11.3 µM
COc1cccc(C(=O)Nc2ccc(SC(C(=O)Nc3ccccc3)c3ccccc3)cc2)c1 (centres undefined)	> 40 µM (inactive)
Cc1ccccc1NC(=O)Cn1ccc2ccn(Cc3ccccc3)c2c1=O	> 40 µM (inactive)
Cc1ccc(NC(=O)CSc2ccc(NC(=O)c3ccc(C(=O)O)cc3C(=O)O)cc2)c(C)c1	> 40 µM (inactive)
Cc1ccc(NC(=O)Nc2ccc(C)n(CC(=O)Nc3cccc(C)c3)c2=O)cc1	> 40 µM (inactive)
O=C(Nc1ccc(Cn2cnc(-c3nc(-c4ccccc4)no3)c2)cc1)c1ccccc1F	> 40 µM (inactive)
CSCCC(NC(=O)c1ccccc1)c1nc2ccccc2n1CC(=O)Nc1ccccc1 (centres undefined)	35.9 µM
N=C1/C(=C/c2cn(Cc3ccc(F)cc3)c3ccccc23)C(=O)N=C2SC(Cc3ccccc3)=NN12	17.4 µM
Cc1ccc(-c2cc(C(F)F)n3ncc(C(=O)Nc4ccc(O)cc4)c3n2)cc1	14.4 µM
Cc1cc(C(=O)Nc2cc([N+](=O)[O-])cc3oc(-c4ccccc4)cc23)on1	> 40 µM (inactive)
O=C(Cn1c(=O)[nH]c2c(-c3ccc(F)cc3)c[nH]c2c1=O)NCc1ccc(F)cc1	> 40 µM (inactive)
N=C1/C(=C/c2cn(Cc3ccccc3)c3ccccc23)C(=O)N=C2SC(C(F)(F)F)=NN12	> 40 µM (inactive)
O=C(CCCn1c(=O)c2cc(Cl)ccc2n(CC(=O)Nc2cccc(F)c2)c1=O)NCc1ccco1	> 40 µM (inactive)
CC(C)CC(NC(=O)c1ccc(Cl)cc1Cl)c1nc2ccccc2[nH]1 (centres undefined)	> 40 µM (inactive)
O=C(NCc1ccc2c(c1)OCO2)c1[nH]nc2c1COc1ccccc1-2	15.2 µM
O=C(Nc1ccc(-n2cccc2)cc1)c1cccc([N+](=O)[O-])c1	> 40 µM (inactive)
Cc1ccc(C(=O)O)cc1NC(=O)C(Sc1cccc(NC(=O)c2cccc(Cl)c2)c1)c1ccccc1 (centres undefined)	> 40 µM (inactive)
CCc1nc(SCC(=O)Nc2cc(Cl)ccc2C)c2oc3ccccc3c2n1	1.14 µM

The next lines start with the values.

IC50	Structure (SMILES)
> 40 µM (inactive)	O=C(Nc1cccc(Cl)c1)c1cc(-c2cccnc2)n[nH]1
> 40 µM (inactive)	COc1ccc(OC)c(NC2=NS(=O)(=O)C(c3cccc(Br)c3)=C2C)c1
> 40 µM (inactive)	Cc1cc(CN2CCCCC2c2cc(=O)n3ccnc3[nH]2)no1 (centres undefined)
> 40 µM (inactive)	Cc1ccc(N2CC(c3nnc(NC(=O)CCc4ccccc4)s3)CC2=O)cc1 (centres undefined)
32.8 µM	O=C(NCCc1nc2ccccc2n1CCCOc1ccccc1Cl)C1CCCCC1
> 40 µM (inactive)	COc1ccc(NC(=O)Cn2c(=O)n(CCCC(=O)NCCc3ccc(OC)c(OC)c3)c(=O)c3ccccc32)cc1Cl
> 40 µM (inactive)	O=C(c1cccnc1)N1CCN(c2cc(-c3ccccc3)[nH]n2)CC1
> 40 µM (inactive)	Cc1noc(-c2ccnc(-n3cnc(C(=O)NCC4CC4)c3)c2)n1
> 40 µM (inactive)	COc1ccc(-c2noc(CC(=O)Nc3cccc(OC)c3)n2)cc1
> 40 µM (inactive)	Cc1cc(=O)n(C)c2c(O)c3c(cc12)c(C)cc(=O)n3C
20.8 µM	O=C(COc1ccc(N2CC(C(=O)NCc3ccc4c(c3)OCO4)CC2=O)cc1)Nc1ccc(F)cc1 (centres undefined)
> 40 µM (inactive)	O=C(COc1ccc(C2CCCCC2)cc1)Nc1ccc(-c2nn3cnnc3s2)cc1
16.4 µM	O=c1[nH]c(C2CCN(S(=O)(=O)c3ccc(S(=O)(=O)NC4CCCCC4)cc3)CC2)nc2c1nnn2Cc1c(F)cccc1Cl
> 40 µM (inactive)	COc1ccc(CC(=O)OCC(=O)N2c3ccccc3NC(=O)C2(C)C)cc1
> 40 µM (inactive)	COC(=O)c1ccc(C2c3[nH]c4ccccc4c3C[C@@H]3C(=O)N(c4ccc5c(c4)OCCO5)C(=O)N23)cc1 (some centres undefined)
21.1 µM	O=C(NC1CCCCCC1)c1cccc(S(=O)(=O)Nc2cc(C(F)(F)F)ccc2Cl)c1
> 40 µM (inactive)	O=C(CC1C(=O)N(C2CCCC2)c2nc3ccccc3n21)Nc1ccccc1 (centres undefined)
> 40 µM (inactive)	Cc1ccc(NC(=O)Nc2ccccc2OCc2cc(=O)n3cc(C)ccc3n2)cc1
> 40 µM (inactive)	Cc1ccccc1-c1noc(-c2ccccc2OCC(=O)NC(C)C)n1
> 40 µM (inactive)	CCOC(=O)N1CCC(NC(=O)c2cc(C(=O)Nc3ccc(S(=O)(=O)N4CCCCC4)cc3)ccc2CO)CC1
> 40 µM (inactive)	O=C(Cn1c(=O)n(CCC(=O)N2CCc3ccccc3C2)c(=O)c2ccccc21)NCc1ccccc1Cl
2.81 µM	Cc1ccc(Cn2cc(C(=O)Nc3ccccc3C(N)=O)ccc2=O)cc1
23.3 µM	COc1cc(NC(=O)Cn2c(=O)n(-c3ccc(CC(=O)NCc4ccco4)cc3)c(=O)c3ccccc32)cc(OC)c1
5.79 µM	CC1=C(Cn2c3cccc(=O)c-3nc3ccccc32)CCC(C)(C)C1
> 40 µM (inactive)	O=C(Nc1cccc2ccccc12)N1CCC(c2nc3c(nnn3Cc3ccc(F)cc3)c(=O)[nH]2)CC1
> 40 µM (inactive)	COc1ccc(-c2c(NC(=O)C3COc4ccccc4O3)n[nH]c2C)cc1OC (centres undefined)

IC50	Structure (SMILES)
> 40 µM (inactive)	COc1ccccc1Nc1ncc(C(=O)NCCc2ccc(Cl)cc2)c2ccccc12
> 40 µM (inactive)	CN1CCC(N2CCN(C(=O)C3CCCN(c4cnc5nccnc5c4)C3)CC2)CC1 (centres undefined)
> 40 µM (inactive)	CCOc1ccccc1NC(=O)Cn1c(=O)n(CCC(=O)NCCc2ccc(OC)c(OC)c2)c(=O)c2ccccc21
22.8 µM	COc1ccc(NC(=O)Cn2cc(C(=O)c3ccccc3)c(=O)c3cc(Cl)ccc32)cc1OC
29.5 µM	COc1cc(O)cc2c1C(=O)OC(C)CCCCCCC2 (centres undefined)
> 40 µM (inactive)	Cc1cc(N2CCN(c3ncccn3)CC2)nc2ccc(NC(=O)Cn3nc([N+](=O)[O-])c(Br)c3C)cc12
> 40 µM (inactive)	O=C(C1=CSCCO1)N1CCc2ccccc2C1
13.8 µM	O=C(CCCn1c(=O)c2sccc2n(CC(=O)NCCC2=CCCCC2)c1=O)NCc1ccc2c(c1)OCO2
> 40 µM (inactive)	CCOC(=O)N1CCN(C(=O)c2ccc(CS(=O)c3ccccc3Cl)o2)CC1 (centres undefined)
17.5 µM	O=C(CCn1c(=O)c2ccccc2n(CC(=O)OCc2ccccc2)c1=O)NCc1ccc2c(c1)OCO2
> 40 µM (inactive)	CSc1cccc(NC(=O)C2C3C=CC4(O3)C2C(=O)N(CCc2ccccc2)C4C(=O)NC2CCCCC2)c1 (centres undefined)
5.77 µM	COc1ccc(-c2ccc3cc(C(=O)O)ccc3c2)cc1C12CC3CC(CC(C3)C1)C2
> 40 µM (inactive)	O=c1[nH]c(C2CCN(S(=O)(=O)c3ccc(S(=O)(=O)N4CCOCC4)cc3)CC2)nc2c1nnn2Cc1ccc(F)cc1
> 40 µM (inactive)	COc1ccc(C(=O)COC(=O)c2cccc(NC(=O)c3ccc(Cl)cc3)c2)cc1
> 40 µM (inactive)	COc1ccc(C2(c3nnc(C(C)Oc4ccc(F)cc4)o3)CCOCC2)cc1 (centres undefined)
> 40 µM (inactive)	COc1ccc(S(=O)(=O)NC2CC(=O)N(c3ccc(Cl)cc3)C2)cc1 (centres undefined)
> 40 µM (inactive)	Cc1cc(O)c(=O)cc2c1C[C@H]1CC(C)(C)/C=C/C[C@@]3(C)Oc4cc(=O)c(O)cc(C)c4C[C@@H]3C[C@H](O)[C@]1(C)O2
> 40 µM (inactive)	Cc1cc(NS(=O)(=O)c2ccc(NC(=O)COc3ccc(Cl)cc3)cc2)no1
> 40 µM (inactive)	Cc1cccc(N2C(=O)/C(=C\c3ccc4c(c3)OCCO4)c3ccccc3C2=O)c1
> 40 µM (inactive)	O=C(CNS(=O)(=O)c1ccc(F)cc1)N1CCCC(c2nnc3ccccn23)C1 (centres undefined)
16.2 µM	O=C(Cn1c(=O)n(-c2ccccc2)c(=O)c2ccc(C(=O)NCc3ccc4c(c3)OCO4)cc21)NCCC1=CCCCC1
14.4 µM	O=S(=O)(Nc1cccc(O)c1)c1ccc2oc3ccc(S(=O)(=O)Nc4cccc(O)c4)cc3c2c1
35.9 µM	CCn1cc2c(n1)c(=O)n(Cc1ccccc1)c(=O)n2CC(=O)Nc1ccc(OC)cc1
> 40 µM (inactive)	COc1ccc(NC(=O)Cn2c(=O)n(CCC(=O)NCc3ccccc3)c(=O)c3sccc32)cc1Cl
> 40 µM (inactive)	COc1c(C)c(C(O)C(C)O)c2[nH]c3ccc(CC=C(C)C)cc3c2c1O (centres undefined)
